Source: ChEMBL document CHEMBL1212697, “High-content single-cell drug screening with phosphospecific flow cytometry” (Nat Chem Biol, 2008)
Activity calls are given as the source filed them. The calls are words filed in the database; no cut-off is given here.

Experiments:
[1] = Inhibition of JAK-mediated IL4-induced Stat5 phosphorylation in BALB/c mouse CD11b-int macrophages by Phospho-Flow cytometry
[2] = molecular target: T1, Janus Kinase (JAK) (Homo sapiens) (UniProt P52333+P23458+O60674+P29597); test: Inhibition of JAK-mediated GM-CSF-induced Stat5 phosphorylation in human U937 cells by Phospho-Flow cytometry at 20 uM; type: cell-based; settings: U-937
[3] = molecular target: T1, Janus Kinase (JAK) (Homo sapiens); test: Inhibition of JAK-mediated interferon-gamma-induced Stat1 phosphorylation in human U937 cells by Phospho-Flow cytometry at 20 uM; type: cell-based; settings: U-937
[4] = molecular target: MAP kinase p38 (Homo sapiens, UniProt O15264+Q15759+Q16539+P53778); test: Inhibition of anisomycin-induced p38 phosphorylation in human U937 cells by Phospho-Flow cytometry at 20 uM; type: cell-based; settings: U-937
[5] = organism: Mus musculus; test: Inhibition of JAK-mediated IL4-induced Stat6 phosphorylation in BALB/c mouse CD11b-hi neutrophils by Phospho-Flow cytometry
[6] = organism: Mus musculus; test: Inhibition of JAK-mediated IL4-induced Stat6 phosphorylation in BALB/c mouse CD8+ Tcells by Phospho-Flow cytometry
[7] = Inhibition of JAK-mediated IL6-induced Stat1 phosphorylation in BALB/c mouse B cells by Phospho-Flow cytometry; type: cell-based
[8] = Inhibition of JAK-mediated IL10-induced Stat3 phosphorylation in BALB/c mouse B cells by Phospho-Flow cytometry; type: cell-based
[9] = Inhibition of JAK-mediated interferon-gamma-induced Stat1 phosphorylation in BALB/c mouse B cells by Phospho-Flow cytometry; type: cell-based
[10] = Inhibition of JAK-mediated IL6-induced Stat3 phosphorylation in BALB/c mouse B cells by Phospho-Flow cytometry; type: cell-based
[11] = Inhibition of JAK-mediated IL15-induced Stat5 phosphorylation in BALB/c mouse B cells by Phospho-Flow cytometry; type: cell-based
[12] = Inhibition of JAK-mediated IL7-induced Stat5 phosphorylation in BALB/c mouse B cells by Phospho-Flow cytometry; type: cell-based
[13] = Inhibition of JAK-mediated IL4-induced Stat6 phosphorylation in BALB/c mouse B cells by Phospho-Flow cytometry; type: cell-based
[14] = Inhibition of JAK-mediated IL4-induced Stat5 phosphorylation in BALB/c mouse B cells by Phospho-Flow cytometry; type: cell-based
[15] = Inhibition of JAK-mediated IL6-induced Stat1 phosphorylation in BALB/c mouse CD4+ T cells by Phospho-Flow cytometry; type: cell-based; settings: T-cell
[16] = Inhibition of JAK-mediated IL10-induced Stat3 phosphorylation in BALB/c mouse CD4+ T cells by Phospho-Flow cytometry; type: cell-based; settings: T-cell
[17] = Inhibition of JAK-mediated interferon-gamma-induced Stat1 phosphorylation in BALB/c mouse CD4+ T cells by Phospho-Flow cytometry; type: cell-based; settings: T-cell
[18] = Inhibition of JAK-mediated IL6-induced Stat3 phosphorylation in BALB/c mouse CD4+ T cells by Phospho-Flow cytometry; type: cell-based; settings: T-cell
[19] = Inhibition of JAK-mediated IL15-induced Stat5 phosphorylation in BALB/c mouse CD4+ T cells by Phospho-Flow cytometry; type: cell-based; settings: T-cell
[20] = Inhibition of JAK-mediated IL7-induced Stat5 phosphorylation in BALB/c mouse CD4+ T cells by Phospho-Flow cytometry; type: cell-based; settings: T-cell
[21] = Inhibition of JAK-mediated IL4-induced Stat6 phosphorylation in BALB/c mouse CD4+ T cells by Phospho-Flow cytometry; type: cell-based; settings: T-cell
[22] = Inhibition of JAK-mediated IL4-induced Stat5 phosphorylation in BALB/c mouse CD4+ T cells by Phospho-Flow cytometry; type: cell-based; settings: T-cell
[23] = Inhibition of JAK-mediated IL6-induced Stat1 phosphorylation in BALB/c mouse CD8+ T cells by Phospho-Flow cytometry; type: cell-based; settings: T-cell
[24] = Inhibition of JAK-mediated IL10-induced Stat3 phosphorylation in BALB/c mouse CD8+ T cells by Phospho-Flow cytometry; type: cell-based; settings: T-cell
[25] = Inhibition of JAK-mediated IL6-induced Stat3 phosphorylation in BALB/c mouse CD8+ T cells by Phospho-Flow cytometry; type: cell-based; settings: T-cell
[26] = Inhibition of JAK-mediated IL15-induced Stat5 phosphorylation in BALB/c mouse CD8+ T cells by Phospho-Flow cytometry; type: cell-based; settings: T-cell
[27] = Inhibition of JAK-mediated IL7-induced Stat5 phosphorylation in BALB/c mouse CD8+ T cells by Phospho-Flow cytometry; type: cell-based; settings: T-cell
[28] = Inhibition of JAK-mediated IL4-induced Stat6 phosphorylation in BALB/c mouse CD8+ T cells by Phospho-Flow cytometry; type: cell-based; settings: T-cell
[29] = Inhibition of JAK-mediated IL4-induced Stat5 phosphorylation in BALB/c mouse CD8+ T cells by Phospho-Flow cytometry; type: cell-based; settings: T-cell
[30] = Inhibition of JAK-mediated IL6-induced Stat1 phosphorylation in BALB/c mouse CD11b-hi neutrophils by Phospho-Flow cytometry
[31] = Inhibition of JAK-mediated IL10-induced Stat3 phosphorylation in BALB/c mouse CD11b-hi neutrophils by Phospho-Flow cytometry
[32] = Inhibition of JAK-mediated interferon-gamma-induced Stat1 phosphorylation in BALB/c mouse CD11b-hi neutrophils by Phospho-Flow cytometry
[33] = Inhibition of JAK-mediated IL6-induced Stat3 phosphorylation in BALB/c mouse CD11b-hi neutrophils by Phospho-Flow cytometry
[34] = Inhibition of JAK-mediated IL15-induced Stat5 phosphorylation in BALB/c mouse CD11b-hi neutrophils by Phospho-Flow cytometry
[35] = Inhibition of JAK-mediated IL7-induced Stat5 phosphorylation in BALB/c mouse CD11b-hi neutrophils by Phospho-Flow cytometry
[36] = Inhibition of JAK-mediated IL4-induced Stat5 phosphorylation in BALB/c mouse CD11b-hi neutrophils by Phospho-Flow cytometry
[37] = Inhibition of JAK-mediated IL6-induced Stat1 phosphorylation in BALB/c mouse CD11b-int macrophages by Phospho-Flow cytometry
[38] = Inhibition of JAK-mediated IL10-induced Stat3 phosphorylation in BALB/c mouse CD11b-int macrophages by Phospho-Flow cytometry
[39] = Inhibition of JAK-mediated interferon-gamma-induced Stat1 phosphorylation in BALB/c mouse CD11b-int macrophages by Phospho-Flow cytometry
[40] = Inhibition of JAK-mediated IL6-induced Stat3 phosphorylation in BALB/c mouse CD11b-int macrophages by Phospho-Flow cytometry
[41] = Inhibition of JAK-mediated IL15-induced Stat5 phosphorylation in BALB/c mouse CD11b-int macrophages by Phospho-Flow cytometry
[42] = Inhibition of JAK-mediated IL7-induced Stat5 phosphorylation in BALB/c mouse CD11b-int macrophages by Phospho-Flow cytometry
[43] = Inhibition of JAK-mediated IL4-induced Stat6 phosphorylation in BALB/c mouse CD11b-int macrophages by Phospho-Flow cytometry
[44] = tested on: B; test: Inhibition of JAK-mediated IL10-induced Stat3 phosphorylation in BALB/c mouse B cells at 1 uM by Western blotting analysis; type: cell-based
[45] = tested on: B; test: Inhibition of JAK-mediated IL4-induced Stat5 phosphorylation in BALB/c mouse B cells at 1 uM by Western blotting analysis; type: cell-based
[46] = tested on: B; test: Inhibition of JAK-mediated IL4-induced Stat6 phosphorylation in BALB/c mouse B cells at 10 uM by Western blotting analysis; type: cell-based

For `C=C1C(=O)O[C@H]2C[C@@H]1[C@@H](OC(C)=O)C/C(C)=C/CC/C(C)=C\CC[C@@]2(C)O` [CRASSIN], the IC50 [1] was less than 20 µM, the inhibition [2] was “Active” and the inhibition [3] was 25%. For the same compound, the inhibition [4] was 25%, the inhibition [5] was “Dose-dependent effect” and the inhibition [6] was “Dose-dependent effect”. The IC50 [7] was less than 20 µM, the IC50 [8] was 1 µM and the IC50 [9] was less than 20 µM. The IC50 [10] was less than 20 µM, the IC50 [11] was less than 20 µM and the IC50 [12] was less than 20 µM. It also gave an IC50 [13] of 16 µM, an IC50 [14] of 1 µM and an IC50 [15] of less than 20 µM. For the same compound, the IC50 [16] was less than 20 µM, the IC50 [17] was less than 20 µM and the IC50 [18] was less than 20 µM. The IC50 [19] was less than 20 µM, the IC50 [20] was less than 20 µM and the IC50 [21] was less than 20 µM. For the same compound, the IC50 [22] was less than 20 µM, the IC50 [23] was less than 20 µM and the IC50 [24] was less than 20 µM. For the same compound, the IC50 [25] was less than 20 µM, the IC50 [26] was less than 20 µM and the IC50 [27] was less than 20 µM. The IC50 [28] was less than 20 µM, the IC50 [29] was less than 20 µM and the IC50 [30] was less than 20 µM. It also gave an IC50 [31] of less than 20 µM, an IC50 [32] of less than 20 µM and an IC50 [33] of less than 20 µM. The IC50 [34] was less than 20 µM, the IC50 [35] was less than 20 µM and the IC50 [36] was less than 20 µM. The IC50 [37] was less than 20 µM, the IC50 [38] was less than 20 µM and the IC50 [39] was less than 20 µM. The IC50 [40] was less than 20 µM, the IC50 [41] was less than 20 µM and the IC50 [42] was less than 20 µM. For the same compound, the IC50 [43] was less than 20 µM, the inhibition [44] was “Active” and the inhibition [45] was “Active”. For the same compound, the inhibition [46] was “Active”.
